Laboratory results taken from patent publication US20020022052A1, “Transdermal delivery system” (priority 2000, published 2002).

How the values were obtained:
[1] = ascorbic acid content above 14% by weight, water based; cited from earlier work
[2] = bovine
Experimental: All final tests were carried out with HPLC analysis.

[3] = Skin tolerability trials of ascorbic acid admixtures; conditions: water free carriers, ascorbic acid levels as high as 35%
Excerpt: In addition, acidity is a function of the ionic dissociation of a material in solution. In most circumstances water is the primary dissociation medium and so solutions free of water generally have lower acidity. […] While it is impossible to totally exclude water, as there are minute traces in the ingredients utilized as carriers, acidity is kept to a minimum in what are essentially water free admixtures.

[4] = Maximum achieved massage induced skin load (400 g vibrator, 10 minutes); conditions: particle size 1 micron ± 0.25 um
Excerpt: To counter this problem, Franz Diffusion Cells using the widely accepted Perfused Bovine Udder Skin model were fitted with vibrators which held a soft plastic head against the test skin in a massaging action. The vibrator was allowed to move randomly over the test sample using its own mass to provide the pressure. The total weight of a vibrator and head was 180 grams and the massage heads were 1.2 cm in diameter. The vibrators provided a massage pressure well below that which would be applied by a person finger massaging cream into the skin.
Testing was done by preparing sample creams as discussed below. Each sample was weighed and spread on the test skin. At this point the sample was subject to five minutes of the massage action described and then the remaining cream was removed and skin surface wiped dry. The weight of the absorbed amount was determined by weighing the removed material. The cell was not capped, the skin being left exposed to the air.
Tests were carried out to determine the maximum of both admixture and dry powder that could be induced into the stratum corneum. The vibrator weight was increased to 400 grams and vibration time to 10 minutes. Zinc gluconate (being of particular interest) was used as the active for these tests.

In the case of `O=C1O[C@H]([C@@H](O)CO)C(O)=C1O` [ascorbic acid], the skin reactions [1] is given as “burning, stinging and other skin reactions”, the “particle size at which absorption began to be demonstrated” value [2] is given as “below 7 microns” and the “subjective discomfort compared with 12% water based admixture” value [3] is given as “less discomfort”. For the same compound, the tolerability [3] was “well tolerated”.

Compound zinc gluconate has a Maximum loading ([4]; carrier Eutanol G) of 1.2 micrograms/cm^2 and a Maximum loading ([4]; carrier Nil (dry powder)) of 0.6 micrograms/cm^2.
